Reference: PMC7728372, “Synthesis and Biological Evaluation of Amino Chalcone Derivatives as Antiproliferative Agents” (Molecules, 2020)
Like-named read-outs stand apart in the source and are kept apart here.

Assays:
K562 cell line = system: K562 cell line; design: method as in PMID 19837593; conditions: cited from earlier work
MGC-803 cells [1] = experiment: MTT antiproliferative assay, MGC-803 cells; type: cell-based, human; conditions: exposure for 48 h
Method: (§1) Cell lines used were cultured in humidified incubator at 37 °C and 5% CO2. The RPMI-1640 medium was supplemented with 10% fetal bovine serum, penicillin (100 U/mL) and streptomycin (0.1 mg/mL).
(§2) Cell lines were seeded into […] and incubated for 24 h. Then cells were treated with different concentrations of compounds. And after another 48 h, MTT reagent (20 μL per well) was added and then incubated at 37 °C for 4 h. Formazan was then dissolved with DMSO. Absorbencies of formazan solution were measured at […]. The IC50 values of tested compounds were calculated by SPSS version 17.0.

HCT-116 cells = experiment: MTT antiproliferative assay, HCT-116 cells; type: cell-based, human
Method: as §1, §2

MCF-7 cells [2] = experiment: MTT antiproliferative assay, MCF-7 cells; type: cell-based, human
Method: as §1, §2

HepG2 cells = system: HepG2 cells; design: method as in PMID 23471882; conditions: cited from earlier work
GES-1 cells = experiment: MTT antiproliferative assay, non-cancer GES-1 cells; type: cell-based; conditions: for Fold Selectivity A: A = IC50 (GES-1)/IC50 (MGC-803); for IC50: non-cancer cell line, exposure for 48 h
Method: as §1, §2

MGC-803 cells [3] = system: MGC-803 cells; design: method as in PMID 27423479, PMID 30763884, PMID 27213317; conditions: earlier work of the group; cited from earlier work
hCA IX = system: hCA IX; design: method as in PMID 29852328; conditions: cited from earlier work
MCF-7 cells [4] = conditions: cited from earlier work
MGC-803 cells [5] = experiment: Growth curves of MGC-803 cells; type: cell-based, human; conditions: MGC-803, after treatment for 72 h
Method: Since gastric cancer cell line MGC-803 cells was more sensitive to compound 13e, MGC-803 cells were selected to do further study. The cell viabilities of MGC-803 cells after the treatment with different concentrations of compound 13e for 48 h were presented in Figure 4A, as the concentration rise, cell viability decreased obviously. […] The trends of cell growth were curved with results of cell viabilities after compound 13e treatment. […] We also tested the inhibition activity of compound 13e on normal gastric epithelial cell GES-1.
Figure 4 (A–C) MGC-803 cells inhibition activity of compound 13e […]. (A) Cell viabilities of MGC-803 cells, MGC-803 cells were treated with indicated concentrations of compound 13e for 48 h; (B) Growth curves of MGC-803 cells after the treatment with indicated concentrations of compound 13e for different hours. (C) Cell viabilities of MGC-803 cells and GES-1 cells, cells were treated with indicated concentrations of compound 13e for 48 h. The results shown were representative of three independent experiments.

MGC-803 cells [6] = experiment: Cell colony formation assay; type: cell-based, human
Method: To check the effect of compound 13e on cell proliferation, cell colony formatting assay was performed. […] Beside the activity on cell apoptosis, compound 13e inhibited cell proliferation of MGC-803 cells as well.
(§3) In this work, some other assays including colony formation assay and cell apoptosis assay were referred to our previous work.
(§4) Figure 5 Compound 13e inhibited cell proliferation. (A,B) The colony formation of MGC-803 cells after the treatment with indicated concentrations of compound 13e for 7 days; (C) Cell proliferation related proteins in MGC-803 cells of compound 13e after the treatment with indicated concentrations of 13e for 24 h.

[7] = system: CyclinB1 and CDK1 in MGC-803 cells; experiment: Western blotting of cell proliferation related proteins; type: cell-based, human; conditions: MGC-803, western blot, 24 h
Method: (§5) Gastric cancer cells were seeded in dishes and treated with 13e or DMSO. After 48 h, MGC-803 cells were collected and then lysed. The denatured lysates of each groups were electrophoretic separated in SDS-PAGE. Proteins were then transferred onto PVDF membranes from gels. After blocking for 2 h, membranes were incubated with primary antibodies conjugation. Then, the membranes were washed and incubated with 2nd antibodies. At last, specific proteins were detected.
as §4

MGC-803 cells [8] = experiment: Annexin V/PI flow cytometry apoptosis assay; type: cell-based, human; conditions: MGC-803, 6 μmol/L, 48 h; control less than 10%
Method: as §3
(§6) Figure 6 Compound 13e induced cell apoptosis. (A) Cell nucleus (upper panel) and morphology (lower panel) of compound 13e treated (48 h) or untreated MGC-803 cells; (B) Compound 13e induced apoptosis of MGC-803 cells. After incubated with compound 13e for 48 h, MGC-803 cells were detected by Annexin V/PI with flow cytometric analysis. The Q3 represents live cells, Q4 represents early/primary apoptotic cells, Q2 represents late/secondary apoptotic cells and Q1 represents cells necrosis. (C) The percentage of apoptosis (early and late apoptosis) cells increased dependently with various concentrations of compound 13e. Date are represented as mean ± SD of three independent experiments.

MGC-803 cells [9] = experiment: DAPI fluorescent staining of cell nucleus; type: cell-based, human; conditions: MGC-803, high dose treated group, 48 h
Method: Cells were seeded in 6-welled plate, then treated with different concentration of compounds for 48 h. The treated and untreated cells were washed with PBS buffer. Then fixed with 4% paraformaldehyde for 10 min in dark. After washed with PBS buffer, cells were stained by 2 μg/mL DAPI solution containing 0.1% triton X-100 for 30 min. Discard the solution and wash the cells with PBS buffer. Capture the images with a fluorescence microscope.
as §6

[10] = system: apoptosis related proteins in MGC-803 cells; experiment: Western blotting of apoptosis related proteins; type: cell-based, human; conditions: MGC-803, 1.5-6 μmol/L, 48 h
Method: as §5
Figure 7 Compound 13e regulated apoptosis related proteins. (A,B) The expression of cell apoptosis related proteins were detected by western blotting. MGC-803 cells were incubated with various concentrations compound 13e (0 μmol/L, 1.5 μmol/L, 3 μmol/L, 6 μmol/L) for 48 h. Date are represented as mean ± SD of three independent experiments.

PC-3 cells = system: PC-3 cells; design: method as in PMID 27777009; conditions: cited from earlier work
VEGFR-2/KDR kinase = target: VEGFR-2/KDR kinase; design: method as in PMID 27777009; conditions: cited from earlier work
[11] = Homo sapiens, HCT-116, exposure for 48 h
[12] = Homo sapiens, MCF7, exposure for 48 h

COc1ccc(/C=C/C(=O)c2cc(OC)c(OC)c(OC)c2)cc1 [Compound 2, (E)-3-(4-methoxyphenyl)-1-(3,4,5-trimethoxyphenyl)prop-2-en-1-one]
IC50 (K562 cell line): 4.5 µM

(E)-4-chloro-N-(4-(3-oxo-3-(p-tolyl)prop-1-en-1-yl)phenyl)butanamide [Compound 13i]
IC50 (MGC-803 cells [1]): 16.8 ± 0.82 µM | IC50 (HCT-116 cells; exposure for 48 h): 13.1 ± 0.61 µM | IC50 (MCF-7 cells [2]; exposure for 48 h): 17.6 ± 0.51 µM

COc1ccc(/C=C/C(=O)c2ccc(OC)c3c2OC(C)(C)C=C3)cc1 [Compound 3, millepachine]
IC50 (HepG2 cells): 1.51 µM

COc1cc(/C=C/C(=O)c2ccc(NC(=O)CCl)cc2)cc(OC)c1OC [Compound 13c]
IC50 (MGC-803 cells [1]; Homo sapiens, MGC-803, 48 h): 1.88 ± 0.22 µM | IC50 (HCT-116 cells; [11]): 2.83 ± 0.03 µM | IC50 (MCF-7 cells [2]; [12]): 3.12 ± 0.01 µM | melting point: 182 to 183 °C

(E)-N-(4-(3-oxo-3-(3,4,5-trimethoxyphenyl) prop-1-en-1-yl)phenyl) pentanamide [Compound 13b]
IC50 (MGC-803 cells [1]): 4.08 ± 0.24 µM | IC50 (HCT-116 cells; exposure for 48 h): 6.72 ± 0.28 µM | IC50 (MCF-7 cells [2]; exposure for 48 h): 3.11 ± 0.34 µM

COc1cc(/C=C/C(=O)c2ccc(NC(=O)CCCCCl)cc2)cc(OC)c1OC [Compound 13f]
IC50 (MGC-803 cells [1]; Homo sapiens, MGC-803, 48 h): 3.01 ± 0.11 µM | IC50 (HCT-116 cells; [11]): 4.28 ± 0.32 µM | IC50 (MCF-7 cells [2]; [12]): 4.45 ± 0.11 µM | melting point: 125 to 126 °C

(E)-N-(4-(3-(4-bromophenyl)-3-oxoprop-1-en-1-yl) phenyl)-4-chlorobutanamide [Compound 13k]
IC50 (MGC-803 cells [1]): > 40 µM | IC50 (HCT-116 cells; exposure for 48 h): > 40 µM | IC50 (MCF-7 cells [2]; exposure for 48 h): > 40 µM

C=CC(=O)Nc1ccc(/C=C/C(=O)c2cc(OC)c(OC)c(OC)c2)cc1 [Compound 13g, (E)-N-(4-(3-oxo-3-(3,4,5-trimethoxyphenyl)prop-1-en-1-yl)phenyl) acrylamide]
IC50 (MGC-803 cells [1]; Homo sapiens, MGC-803, 48 h): 1.83 ± 0.2 µM | IC50 (MGC-803 cells [1]): 1.52 µM | IC50 (HCT-116 cells; [11]): 1.12 ± 0.11 µM | IC50 (MCF-7 cells [2]; [12]): 2.06 ± 0.21 µM | Fold Selectivity A (GES-1 cells): 5.4 fold | IC50 (GES-1 cells; Homo sapiens, GES1): 8.22 µM | melting point: 178 to 179 °C

O=C(CCCCl)Nc1ccc(C(=O)/C=C/c2ccccc2)cc1 [Compound 13h]
IC50 (MGC-803 cells [1]; Homo sapiens, MGC-803, 48 h): 22.1 ± 0.75 µM | IC50 (HCT-116 cells; [11]): 13.1 ± 0.51 µM | IC50 (MCF-7 cells [2]; [12]): 22.2 ± 0.83 µM | melting point: 161 to 162 °C

O=C(CCCCl)Nc1ccc(C(=O)/C=C/c2ccc(F)cc2)cc1 [Compound 13j]
IC50 (MGC-803 cells [1]; Homo sapiens, MGC-803, 48 h): > 40 µM | IC50 (HCT-116 cells; [11]): > 40 µM | IC50 (MCF-7 cells [2]; [12]): > 40 µM | melting point: 167 to 168 °C

COc1ccc(/C=C/C(=O)c2ccc(NC(=O)CCCCl)cc2)cc1OC [Compound 13l]
IC50 (MGC-803 cells [1]; Homo sapiens, MGC-803, 48 h): 16.3 ± 0.65 µM | IC50 (HCT-116 cells; [11]): > 40 µM | IC50 (MCF-7 cells [2]; [12]): 10.1 ± 0.73 µM | melting point: 166 to 167 °C

COc1cc(/C=C/C(=O)c2ccc(NC(=O)CSC(=S)N3CCN(CCO)CC3)cc2)cc(OC)c1OC [Compound 6]
IC50 (MGC-803 cells [3]): 1.74 µM

COc1cc(/C=C/C(=O)c2ccc(NC(=O)CCCl)cc2)cc(OC)c1OC [Compound 13d]
IC50 (MGC-803 cells [1]; Homo sapiens, MGC-803, 48 h): 1.64 ± 0.18 µM | IC50 (HCT-116 cells; [11]): 2.4 ± 0.26 µM | IC50 (MCF-7 cells [2]; [12]): 2.12 ± 0.13 µM | melting point: 183 to 184 °C

O=c1[nH]cc(F)c(=O)[nH]1 [Compound 5-Fu, reference compound]
IC50 (HCT-116 cells; exposure for 48 h): 14.4 ± 1.73 µM | IC50 (MCF-7 cells [2]; exposure for 48 h): 12.1 ± 1.28 µM | IC50 (GES-1 cells): 8.22 µM

O=C(/C=C/c1cn(S(=O)(=O)c2ccc(Cl)cc2Cl)c2ccccc12)c1ccncc1 [Compound 4]
IC50 (hCA IX): 0.13 µM | IC50 (MCF-7 cells [4]): 12.2 µM

COc1cc(/C=C/C(=O)c2ccc(NC(=O)CCCCl)cc2)cc(OC)c1OC [Compound 13e]
IC50 (MGC-803 cells [1]; Homo sapiens, MGC-803, 48 h): 1.54 µM | IC50 (MGC-803 cells [1]): 1.52 ± 0.12 µM | IC50 (HCT-116 cells; [11]): 1.83 ± 0.2 µM | IC50 (MCF-7 cells [2]; [12]): 2.54 ± 0.18 µM | Fold Selectivity A (GES-1 cells): 5.4 fold | IC50 (GES-1 cells; Homo sapiens, GES1): 8.22 µM | Concentration range of selective inhibitory effect on cancer cells (GES-1 cells; MGC-803 versus GES-1, 48 h): below 2 μmol/L | Inhibition activity on GES-1 compared with MGC-803 (GES-1 cells; cell viability, 48 h, Figure 4C): lower inhibition activity on GES-1 than gastric cancer cell MGC-803 | Dose from which cell growth is inhibited (MGC-803 cells [5]): ≥ 0.75 µmol/L | Concentration at which colonies were evidently reduced (MGC-803 cells [6]; MGC-803, 7 days treatment, compared to control): greater than 0.5 μmol/L | Colony formation of MGC-803 cells (MGC-803 cells [6]; result in words): inhibited the colony formation | CDK1 protein level [7]: down-regulated | CyclinB1 protein level [7]: down-regulated | Rate of apoptosis cells (early and late) (MGC-803 cells [8]): 86.7% | Cell nucleus morphology (DAPI) (MGC-803 cells [9]): concentrated and fragmented | Bcl-2 expression [10]: down regulated | Caspase3/7 [10]: cleaved (activated) | Caspase8 [10]: cleaved (activated) | Caspase12 [10]: cleaved (activated) | DR5 expression [10]: up regulated | Noxa expression [10]: up regulated | PARP [10]: cleaved | XIAP expression [10]: decreased | c-IAP1 expression [10]: decreased | t-Bid [10]: increase | melting point: 170 to 171 °C

(E)-N-(4-(3-oxo-3-(3,4,5-trimethoxyphenyl) prop-1-en-1-yl) phenyl) acetamide [Compound 13a]
IC50 (MGC-803 cells [1]): 3.81 ± 0.22 µM | IC50 (MCF-7 cells [2]; exposure for 48 h): 3.56 ± 0.17 µM

CNC(=O)c1cc(Oc2ccc(C(=O)/C=C/c3cc(OC)c(OC)c(OC)c3)cc2)ccn1 [Compound 5]
IC50 (MCF-7 cells [4]): 3.88 µM | IC50 (PC-3 cells): 3.15 µM | IC50 (VEGFR-2/KDR kinase): 0.72 µM

COc1cc(/C=C/C(=O)c2ccc(OCCCn3cc(CSc4nccs4)nn3)cc2)cc(OC)c1OC [Compound 7]
IC50 (MGC-803 cells [3]): 4.26 µM
